Results as given in patent publication US9949970B2, “Synthesis of new benzothiazole derivatives as potential anti-tubercular agents” (priority 2010, dated 2018).

Tested on: M. tuberculosis isolates and drug resistance strains
Assay type: cell-based, Mycobacterium tuberculosis

Row | Molecule | In vitro activity (result in words)
1 | O=C(Nc1ccc2nc(NC(=O)c3ccc(F)cc3F)sc2c1)c1ccc([N+](=O)[O-])o1 [Compound 6i, N2-{2-[(2,4-difluorobenzoyl)amino]-1,3-benzothiazol-6-yl}-5-nitrofuramide] | good in vitro activity
2 | O=[N+]([O-])c1ccc(C=NNc2nc3ccc(OC(F)(F)F)cc3s2)s1 [Compound 3j, 5-nitro-2-thiophenecarbaldehyde 2-(6-trifluoromethoxy-1,3-benzothiazole-2-yl)hydrazone] | good in vitro activity
3 | O=C(Nc1nc2ccc(NC(=O)c3ccc([N+](=O)[O-])o3)cc2s1)c1ccc(Cl)cc1 [Compound 6g, N2-{2-[(4-chlorobenzoyl)amino]-1,3-benzothiazol-6-yl}-5-nitrofuramide] | good in vitro activity
4 | O=C(NNc1nc2ccc(OC(F)(F)F)cc2s1)c1ccc([N+](=O)[O-])o1 [Compound 4e, N′2-(6-trifluoromethoxy-1,3-benzothiazol-2-yl)-5-nitro-2-furanecarbohydrazide] | good in vitro activity
5 | N2-(2-{[(E)-3-(4-chlorophenyl)-2-propenoyl]amino}-1,3-benzothiazol-6-yl)-5-nitro-2-furamide [Compound 6w] | good in vitro activity
6 | O=C(Nc1nc2ccc(NC(=O)c3ccc([N+](=O)[O-])o3)cc2s1)c1cnccn1 [Compound 6p, N2-(6-{[(5-nitro-2-furyl)carbonyl]amino}-1,3-benzothiazol-2-yl)-2-pyrazinecarboxamide] | good in vitro activity
7 | O=C(Nc1nc2ccc(NC(=O)c3ccc([N+](=O)[O-])o3)cc2s1)c1ccc(F)cc1 [Compound 6f, N2-{2-[(4-fluorobenzoyl)amino]-1,3-benzothiazol-6-yl}-5-nitrofuramide] | good in vitro activity
8 | O=C(Nc1ccc2nc(NC(=O)c3ccc([N+](=O)[O-])o3)sc2c1)c1ccc([N+](=O)[O-])o1 [Compound 8a, N2-(2-{[(5-nitro-2-furyl)carbonyl]amino}-1,3-benzothiazol-6-yl}-5-nitro-2-furamide] | good in vitro activity
